Laboratory results taken from patent US8940911B2, “Squarylated lactones inhibitors for bacterial biofilm formation” (Syracuse University, priority 2012, dated 2015).

Key:
E. coli RP437 = assay: Static biofilm dispersion assay (established biofilm, crystal violet); assay type: cell-based, Escherichia coli; settings: established 24 h E. coli RP437 biofilm, 200 μM, further 24 h
Text: Apart from the design and development of molecules that display bacterial biofilm inhibition, perhaps the greater challenge is to construct small molecules that will effectively disperse established biofilm. Generally, treatment of chronic microbial infections is commonly hindered by the presence of established biofilms that offer increased resistance to the entry of antibiotics and prevent their mode of action. In fact, bacteria in the biofilms are known to be greater than 1000-fold resistant to microbicides. […] E. coli RP437 strain was allowed to form biofilms over 24 h in the absence of any inhibitor. […]
An overnight culture of E. coli RP437 grown in LB media (OD600 of 1.0) containing streptomycin (10 μg/mL) was subsequently sub-cultured to an OD600 of 0.03-0.04 (1:100 dilution with LB media). […] Finally, the biofilm formed was quantified by transferring 100 μL of the ethanol solution into a fresh polystyrene microtiter dish that was subsequently read by an absorbance plate reader (A600). After elimination of background absorbance, the percentage dispersion was calculated by dividing the amount of absorbed crystal violet in wells that contained the synthetic compound by the amount of absorbed crystal violet in wells that contained bacteria only (control). […]

SK-N-SH cells = assay: Human neuroblastoma cancer cell cytotoxicity assay (CCK-8); assay type: cell-based; settings: 200 or 300 μM, 1 h exposure, read after 24 h
Protocol: After examining the efficacy of SHLs at inhibiting biofilm, dispersing established biofilms, and reducing the maximum thickness of biofilms without being toxic to the planktonic bacterial cells, we tested the cytotoxicity of the key potent SHLs on the human neuroblastoma cancer cell line SK-N-SH. These studies were conducted such that the SK-N-SH cells were subjected to the maximum concentrations of the key potent SHLs tested on bacteria.
A previously grown T-flask of SK-N-SH cells was observed under a microscope to confirm the confluence of the cells. Next, the old media was discarded and the adherent cells were washed with ˜10 mL of MEM(−). The wash was discarded and 2 mL of Trypsin-EDTA solution was added to the T-flask and incubated for 10 minutes at 37° C. and at 5% atmosphere of CO2. Afterwards, the flask was viewed under a microscope to determine if the cells were suspended in the solution. Subsequently, ˜8 mL of MEM(+) was added to the flask and carefully mixed via pipette to break-up any large clusters of cells. 100 μL of the culture was added to an Eppendorf tube and combined with 100 μL of […]. A hemocytometer and glass cover slide was carefully cleaned with a kimwipe and ethanol. Placing the glass cover slide on top of the hemocytometer, 10 μL of the mixture in the Eppendorf tube was pipetted into the two grooves on the hemocytometer, avoiding the generation of bubbles. The hemocytometer was viewed one chamber at time under a microscope and the live cells were counted using the hemocytometer cell counting method. The remaining cell culture in the T-flask was diluted with MEM(+) to 25 mL such that there would be ˜5000 cells/mL. 100 μL of the culture was placed into wells on a 96 well plate such that one column had only MEM(+) and the wells on the outer perimeter of the plate were left empty. Four plates were made in this manner so that there would be plates for times 0, 24, 48, and 72 h. The plate was then incubated for 24 h at 37° C. and at 5% atmosphere of CO2. Subsequently, the old media was discarded and the wells were subjected to either 200 μM or 300 μM solutions of compounds 3, 4, 8, and 46 in MEM(+) (100 μL) such that one column still contained only MEM(+) and one column contained MEM(+) and untreated cells. The plate was incubated for 1 h and then the solutions were discarded and fresh MEM(+) media was added (100 μL). Each plate was then incubated for the desired time (0, 24, 48, or 72 h). After incubation, 10 μL of CCK-8 solution was added to each well and then the plate was incubated for 2 h followed by reading the OD450 with a microplate reader.

Row | SMILES | biofilm dispersal ability (E. coli RP437) [%] | cytotoxicity on human neuroblastoma cancer cells (in words) (SK-N-SH cells) | biofilm dispersal (in words) (E. coli RP437)
1 | CC1=C(Br)/C(=C/Br)OC1=O [BF8 48, reference compound] | 39 | – | –
2 | CCCCOc1c(NC2CCCC2)c(=O)c1=O [butoxy-SCPA 46] | – | toxic | –
3 | C=Cc1c(NC2CCOC2=O)c(=O)c1=O (stereo not shown) [vinyl-SHL 3] | – | toxic | a quarter of biofilm being dispersed
